Test results reported in patent publication US20200239530A1, “COMPOUNDS AND METHODS OF MODULATING PROTEIN DEGRADATION” (Vividion Therapeutics, Inc., priority 2017, published 2020).
Like-named read-outs stand apart in the source and are kept apart here.

Key:
Assay in all cases: Cysteine liganding, probe competition
Format in all cases: binding
UniProt Q96BF6 = molecular target: T1, UniProt Q96BF6 (Homo sapiens, UniProt Q96BF6); conditions: for inhibition at 100 µM / inhibition at 500 µM: read-out: percent inhibition
T1 construct: Cells were resuspended in cold PBS on ice and sonicated with a probe sonicator to achieve lysis; endogenous in cells
T1 sequence (Q96BF6 1-587): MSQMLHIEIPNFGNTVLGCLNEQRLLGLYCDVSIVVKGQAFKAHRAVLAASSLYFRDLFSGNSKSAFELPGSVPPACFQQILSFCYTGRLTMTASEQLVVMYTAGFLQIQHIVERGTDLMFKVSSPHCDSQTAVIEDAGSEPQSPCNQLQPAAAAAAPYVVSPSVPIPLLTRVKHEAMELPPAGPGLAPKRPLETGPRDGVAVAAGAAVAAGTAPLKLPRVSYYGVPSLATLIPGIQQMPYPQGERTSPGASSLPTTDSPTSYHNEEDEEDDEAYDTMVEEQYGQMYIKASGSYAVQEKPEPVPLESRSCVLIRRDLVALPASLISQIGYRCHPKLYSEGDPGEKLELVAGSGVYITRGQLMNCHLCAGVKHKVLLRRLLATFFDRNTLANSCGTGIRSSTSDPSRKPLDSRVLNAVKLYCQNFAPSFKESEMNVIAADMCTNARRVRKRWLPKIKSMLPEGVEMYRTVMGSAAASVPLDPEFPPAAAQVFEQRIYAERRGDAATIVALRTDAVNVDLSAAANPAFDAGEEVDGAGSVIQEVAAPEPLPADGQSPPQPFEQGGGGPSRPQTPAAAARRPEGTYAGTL
Description: (§1) The following 96-well sample prep protocol was used for sample preparation.

UniProt Q9BWF2 = molecular target: T2, UniProt Q9BWF2 (Homo sapiens, UniProt Q9BWF2)
T2 construct: 200 μL of lysate containing 5 mg/ml proteome was treated with 2 μL of 100× compound stock; endogenous in cells
T2 sequence (Q9BWF2 1-469): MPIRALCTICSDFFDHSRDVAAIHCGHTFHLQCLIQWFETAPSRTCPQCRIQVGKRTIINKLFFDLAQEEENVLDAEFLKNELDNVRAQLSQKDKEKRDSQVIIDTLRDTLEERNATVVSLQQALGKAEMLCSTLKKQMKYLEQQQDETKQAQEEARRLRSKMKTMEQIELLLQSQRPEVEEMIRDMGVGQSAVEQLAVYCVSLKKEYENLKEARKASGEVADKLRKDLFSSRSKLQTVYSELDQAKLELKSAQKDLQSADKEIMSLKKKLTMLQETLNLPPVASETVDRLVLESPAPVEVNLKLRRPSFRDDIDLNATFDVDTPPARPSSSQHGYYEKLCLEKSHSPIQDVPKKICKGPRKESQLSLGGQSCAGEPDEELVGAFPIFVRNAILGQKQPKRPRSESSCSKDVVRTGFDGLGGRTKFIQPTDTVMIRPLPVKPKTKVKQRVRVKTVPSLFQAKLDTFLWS
Description: as §1

UniProt Q9HCI7 = molecular target: T3, UniProt Q9HCI7 (Homo sapiens, UniProt Q9HCI7); conditions: for percent inhibition: 100 uM
T3 construct: Cells were resuspended in cold PBS on ice and sonicated with a probe sonicator to achieve lysis; endogenous in cells
T3 sequence (Q9HCI7 1-577): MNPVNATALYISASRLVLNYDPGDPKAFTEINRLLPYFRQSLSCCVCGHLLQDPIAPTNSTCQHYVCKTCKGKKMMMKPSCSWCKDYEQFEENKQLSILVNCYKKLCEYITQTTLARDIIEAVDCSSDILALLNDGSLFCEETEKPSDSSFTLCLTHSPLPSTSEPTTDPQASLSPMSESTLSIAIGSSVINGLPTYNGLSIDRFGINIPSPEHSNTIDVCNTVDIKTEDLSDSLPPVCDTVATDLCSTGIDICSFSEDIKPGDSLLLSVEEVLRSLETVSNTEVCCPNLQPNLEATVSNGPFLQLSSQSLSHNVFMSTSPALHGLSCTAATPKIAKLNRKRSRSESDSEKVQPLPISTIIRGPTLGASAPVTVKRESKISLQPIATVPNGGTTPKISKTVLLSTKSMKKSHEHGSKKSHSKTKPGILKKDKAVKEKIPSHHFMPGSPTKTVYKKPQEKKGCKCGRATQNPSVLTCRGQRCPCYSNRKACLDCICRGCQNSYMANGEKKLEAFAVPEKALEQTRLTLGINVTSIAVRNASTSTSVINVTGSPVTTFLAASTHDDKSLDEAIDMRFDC
Description: as §1

UniProt Q495X7 = molecular target: T4, UniProt Q495X7 (Homo sapiens, UniProt Q495X7)
T4 construct: 200 μL of lysate containing 5 mg/ml proteome was treated with 2 μL of 100× compound stock; endogenous in cells
T4 sequence (Q495X7 1-471): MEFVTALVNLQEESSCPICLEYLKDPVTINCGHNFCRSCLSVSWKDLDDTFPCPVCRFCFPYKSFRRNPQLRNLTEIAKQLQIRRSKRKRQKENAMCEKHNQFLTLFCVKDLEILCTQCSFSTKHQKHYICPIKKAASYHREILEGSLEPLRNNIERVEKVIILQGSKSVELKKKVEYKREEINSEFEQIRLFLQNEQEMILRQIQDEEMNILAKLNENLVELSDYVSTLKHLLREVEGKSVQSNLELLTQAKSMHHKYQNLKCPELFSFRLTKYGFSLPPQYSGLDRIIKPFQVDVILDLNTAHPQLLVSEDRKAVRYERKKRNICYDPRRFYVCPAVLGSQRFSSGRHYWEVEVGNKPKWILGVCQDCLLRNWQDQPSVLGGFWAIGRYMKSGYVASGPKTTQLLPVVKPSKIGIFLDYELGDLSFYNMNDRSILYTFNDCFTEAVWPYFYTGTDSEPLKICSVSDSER
Description: as §1

[1] = 100 uM, read-out: KB02_100 uM_percent_inhibition
[2] = 500 uM, read-out: KB02_500 uM_percent_inhibition

KB05_500 uM_percent_inhibition (UniProt Q9BWF2; 500 uM) | inhibition at 500 µM (UniProt Q9BWF2; 500 uM, read-out: KB05_500 uM_percent_inhibition) | inhibition at 100 µM (UniProt Q9HCI7; read-out: percent inhibition) | SMILES | inhibition at 100 µM (UniProt Q96BF6; 100 uM) | percent inhibition (UniProt Q96BF6; 500 uM) | inhibition at 500 µM (UniProt Q96BF6; 500 uM) | percent inhibition (UniProt Q9HCI7) | inhibition at 100 µM (UniProt Q495X7; [1]) | inhibition at 500 µM (UniProt Q495X7; [2]) | percent inhibition (UniProt Q96BF6; 100 uM) | inhibition at 100 µM (UniProt Q9BWF2; [1]) | KB02_500 uM_percent_inhibition (UniProt Q9BWF2; 500 uM) | inhibition at 500 µM (UniProt Q9BWF2; [2]) | KB03_100 uM_percent_inhibition (UniProt Q495X7; 100 uM) | KB03_500 uM_percent_inhibition (UniProt Q495X7; 500 uM)
29% | 22% | 15% | C=CC(=O)N(c1ccccc1)c1ccc(Br)cc1 [KB05] | 25% | 56% | 47% | 11% |  |  |  |  |  |  |  | 
 |  |  | COc1ccc2c(c1)CCCN2C(=O)CCl [KB02] | 38% | 32% | 46% |  | 15% | 44% | 32% | 10% | 52% | 36% |  | 
 |  |  | O=C(CCl)Nc1cc(C(F)(F)F)cc(C(F)(F)F)c1 [KBO3] |  |  |  | 49% |  |  |  |  |  |  | 27% | 43%
